These results are taken from US8470867B2, “Sigma receptor inhibitors” (Laboratorios Del Dr. Esteve, S.A., priority 2004, dated 2013).

Data set [1] has as its system capsaicin-induced mechanical allodynia. In words: Effect on capsaicin in development of mechanical allodynia (von Frey filaments). In kind it is in vivo. To be noted: mice. The protocol:
This model uses the von-Frey Filaments and is a model to test the effects or symptoms of neuropathic pain, allodynia etc.
• The injection of 1 μg of capsaicin to experimental animals produces acute pain followed by hyperalgesia/allodynia • The mechanisms involved in capsaicin-induced acute pain and hyperalgesia are relatively well known (mainly activation of peripheral nociceptors and sensitization of spinal cord neurons, respectively)
After habituation mice were according to FIG. 1 first treated with the test-compound (or solvent in controls). Then 1 μg capsaicin (1% DMSO) is injected into their paw resulting in developing pain in the effected paw. The effected paw is then treated with a mechanical stimulus and the latency time before the paw is withdrawn is measured.

For a further data set, the target named is T1, σ2-receptor (Mus musculus, UniProt Q8VD00).
T1 construct: brains from sigma receptor type I (σ1) knockout mice were homogenized; from tissue; host or cells: brain membranes of σ1 knockout mice
T1 sequence (Q8VD00 1-176): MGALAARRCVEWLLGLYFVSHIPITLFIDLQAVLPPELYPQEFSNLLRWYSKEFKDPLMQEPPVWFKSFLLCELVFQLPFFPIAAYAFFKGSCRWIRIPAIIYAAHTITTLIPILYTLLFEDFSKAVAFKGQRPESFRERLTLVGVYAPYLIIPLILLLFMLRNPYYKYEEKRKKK
Kind of data set: Sigma-2 receptor binding, [3H]-DTG, brains from σ1 knockout mice. Also on record: % Binding σ2: dose or concentration left out as unconfirmed. The protocol: Binding studies for σ2-receptor were performed as described ([…] et al., 1991) with some modifications. In brief, brains from sigma receptor type I (σ1) knockout mice were homogenized in a volume of 10 mL/g tissue net weight of ice-cold 10 mM Tris-HCl, pH 7.4, containing 320 mM sucrose (Tris-sucrose buffer) with a Potter-Elvehjem homogenizer (10 strokes at 500 r.p.m.) The homogenates were then centrifuged at 1000 g for […] at 4° C., and the supernatants were saved. The pellets were resuspended by vortexing in 2 mL/g ice-cold Tris-sucrose buffer and centrifuged again at 1000 g for 10 min. The combined 1000 g supernatants were centrifuged at 31000 g for 15 min at 4° C. The pellets were resuspended by vortexing in 3 mL/g 10 mM Tris-HCl, pH 7.4, and the suspension was kept at 25° C. for 15 min. Following centrifugation at 31000 g for 15 min, the pellets were resuspended by gentle Potter Elvehjem homogenization to a volume of 1.53 mL/g in 10 mM Tris-HCl pH 7.4. The assay tubes contained 10 μL of [^3H]-DTG (final concentration of 3 nM), 400 μL of the tissue suspension (5.3 mL/g in 50 mM Tris-HCl, pH 8.0) to a final assay volume of 0.5 mL. […] The amount of bound radioactivity was determined by liquid scintillation spectrometry using a Wallac Winspectral 1414 liquid scintillation counter. Protein concentrations were determined by the method of Lowry et al. (1951).

The target in the next data set is T2, σ1-receptor (Cavia porcellus, UniProt Q60492).
T2 construct: guinea pig brains were homogenized; from tissue; host or cells: guinea pig brain membranes
Kind of data set: Sigma-1 receptor binding, [3H](+)-pentazocine, brain membranes. Also on record: species or system guinea pig. To be noted: for inhibition at 0.1 µM: 10^−7 M. The procedure: Brain membrane preparation and binding assays for the σ1-receptor were performed as described (DeHaven-Hudkins et al., 1992) with some modifications. In brief, guinea pig brains were homogenized in 10 vols. (w/v) of Tris-HCl 50 mM 0.32 M sucrose, pH 7.4, with a Kinematica Polytron PT 3000 at 15000 r.p.m. for 30 s. The homogenate was centrifuged at 1000 g for […] at 4° C. and the supernatants collected and centrifuged again at 48000 g for 15 min at 4° C. The pellet was resuspended in 10 volumes of Tris-HCl buffer (50 mM, pH 7.4), incubated at 37° C. for 30 min, and centrifuged at 48000 g for 20 min at 4° C. Following this, the pellet was resuspended in fresh Tris-HCl buffer (50 mM, pH 7.4) and stored on ice until use.
Each assay tube contained 10 μL of [^3H](+)-pentazocine (final concentration of 0.5 nM), 900 μL of the tissue suspension to a final assay volume of 1 mL and a final tissue concentration of approximately 30 mg tissue net weight/mL. […] All tubes were incubated at 37° C. for 150 min before termination of the reaction by rapid filtration over Schleicher & Schuell GF 3362 glass fibre filters [previously soaked in a solution of 0.5% polyethylenimine for at least 1 h]. Filters were then washed with four times with 4 mL of cold Tris-HCl buffer (50 mM, pH 7.4). Following addition of scintillation cocktail, the samples were allowed to equilibrate overnight. The amount of bound radioactivity was determined by liquid scintillation spectrometry using a Wallac Winspectral 1414 liquid scintillation counter. Protein concentrations were determined by the method of Lowry et al. (1951).

In the next data set the test system is psychosis. The settings on record: cited from earlier work.
For the next data set, the target named is sigma 1 (σ-1) site (Homo sapiens, UniProt Q99720). To be noted: cited from earlier work.
The target of a further data set is sigma (σ-2) site (Homo sapiens, UniProt Q5BJF2). The settings on record: cited from earlier work.

In general, Ki refers to a measure of affinity in units of concentration, obtained from inhibition or displacement. Broadly, the melting point is the temperature, or range, at which the solid turns liquid. By inhibition is commonly meant the drop in the measured response relative to a control, in per cent.

T2 sequence (Q60492 whole entry): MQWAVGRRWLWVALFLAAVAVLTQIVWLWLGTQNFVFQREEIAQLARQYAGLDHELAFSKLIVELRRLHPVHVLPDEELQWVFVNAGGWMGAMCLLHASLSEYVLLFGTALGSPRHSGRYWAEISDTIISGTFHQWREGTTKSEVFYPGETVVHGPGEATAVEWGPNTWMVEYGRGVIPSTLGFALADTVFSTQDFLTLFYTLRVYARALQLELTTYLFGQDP
sigma (σ-2) site, sequence (Q5BJF2 whole entry): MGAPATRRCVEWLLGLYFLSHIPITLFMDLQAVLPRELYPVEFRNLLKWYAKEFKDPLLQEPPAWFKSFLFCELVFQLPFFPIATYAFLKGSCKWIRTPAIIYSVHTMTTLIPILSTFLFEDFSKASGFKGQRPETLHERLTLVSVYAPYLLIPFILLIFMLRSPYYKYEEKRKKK
sigma 1 (σ-1) site, sequence (Q99720 whole entry): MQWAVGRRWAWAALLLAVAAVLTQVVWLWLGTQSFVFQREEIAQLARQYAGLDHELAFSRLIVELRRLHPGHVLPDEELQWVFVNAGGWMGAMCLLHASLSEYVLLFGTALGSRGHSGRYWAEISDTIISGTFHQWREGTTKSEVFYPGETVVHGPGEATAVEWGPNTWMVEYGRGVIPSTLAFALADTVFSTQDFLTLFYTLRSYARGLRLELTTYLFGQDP

As for `Cc1cc(OCCN2CCOCC2)nn1-c1ccc(Cl)c(Cl)c1` [Example 1, 4-{2-(1-(3,4-Dichlorophenyl)-5-methyl-1H pyrazol-3-yloxy)ethyl}morpholine], the melting point lay within 179 to 182 °C. Besides, the “analgesia in capsaicin-induced neuropathic pain, dose dependency (FIG. 2)” value in data set [1] (1 μg capsaicin into paw, von Frey filaments) is reported as “dose dependency of the treatment”. Further, the “efficacy depending on the force of the von-Frey filaments (FIG. 3)” value in data set [1] (1 μg capsaicin, 0.5 g typically in the range of neuropathic pain/allodynia) is listed as “effective specifically in neuropathic pain or mechanical allodynia”. At σ2-receptor, the “% Binding σ2” value stood at 3.7% and the Ki is above 10000 nM.

Molecule `Cc1cc(OCCN2CCC(n3cnc4cccnc43)CC2)nn1-c1ccc(Cl)c(Cl)c1` [Example 7, 3-{1-[2-(1-(3,4-Dichlorophenyl)-5-methyl-1H-pyrazol-3-yloxy)ethyl]piperidin-4-yl}-3H-imidazo[4,5-b]pyridine] had a melting point of 104 to 107 °C. Besides, at σ1-receptor, the inhibition at 0.1 µM is 94.4%.

With `Cl.Clc1ccc(-n2nc(OCCN3CCOCC3)cc2-c2ccccc2)cc1Cl` [Example 16, 4-{2-[1-(3,4-Dichlorophenyl)-5-phenyl-1H-pyrazol-3-yloxy]ethyl}morpholine hydrochloride], the melting point fell in the range of 197 to 207 °C. Moreover, on σ1-receptor, the inhibition at 0.1 µM was 46.5%.

`Cl.Clc1ccc(-n2nc(OCCN3CCCC3)cc2-c2ccccc2)cc1Cl` [Example 17, 1-(3,4-Dichlorophenyl)-5-phenyl-3-[2-(pyrrolidin-1-yl)ethoxy]-1H-pyrazole hydrochloride] yielded a melting point of 137 to 147 °C. For the same molecule, on σ1-receptor, the inhibition at 0.1 µM worked out at 47.3%.

Molecule `Cl.Clc1ccc(-n2nc(OCCN3CCc4ccccc4C3)cc2-c2ccccc2)cc1Cl` [Example 21, 2-{2-[1-(3,4-Dichlorophenyl)-5-phenyl-1H-pyrazol-3-yloxy]ethyl}-1,2,3,4-tetrahydroisoquinoline hydrochloride] gave a melting point of 185 to 189 °C. At σ1-receptor, the inhibition at 0.1 µM was found to be 45.5%.

As to `Cc1cc(OCCCCN2CCOCC2)nn1-c1ccc(Cl)c(Cl)c1.Cl` [Example 22, 4-{4-[1-(3,4-Dichlorophenyl)-5-methyl-1H-pyrazol-3-yloxy]butyl}morpholine hydrochloride], the melting point lay in the range of 150 to 154 °C. Also, on σ1-receptor, the affinity corresponds to a Ki of 2.5 nM and the inhibition at 0.1 µM was determined as 97%.

In turn, `Cc1cc(OCCCCN2CCCCC2)nn1-c1ccc(Cl)c(Cl)c1.Cl` [Example 24, 1-{4-[1-(3,4-Dichlorophenyl)-5-methyl-1H-pyrazol-3-yloxy]butyl}piperidine hydrochloride] showed a melting point of 156 to 161 °C. On σ1-receptor, affinity was put at a Ki of 0.5 nM and the inhibition at 0.1 µM was found to be 110%.

With `Cc1cc(OCCCCN2CCN(C)CC2)nn1-c1ccc(Cl)c(Cl)c1.Cl.Cl` [Example 25, 1-{4-[1-(3,4-Dichlorophenyl)-5-methyl-1H-pyrazol-3-yloxy]butyl}-4-methylpiperazine dihydrochloride], the melting point was in the range of 181 to 185 °C. Moreover, on σ1-receptor, the Ki was determined as 3.9 nM and the inhibition at 0.1 µM worked out at 94.2%.

`Cc1cc(OCCCCN2CCC(c3ccccc3)CC2)nn1-c1ccc(Cl)c(Cl)c1.Cl` [Example 28, 1-{4-[1-(3,4-dichlorophenyl)-5-methyl-1H-pyrazol-3-yloxy]butyl}-4-phenylpiperidine hydrochloride] came in with a melting point of 166 to 170 °C. For the same molecule, the inhibition at 0.1 µM on σ1-receptor was 95.1%.

`CC(C)c1cc(OCCN2CCOCC2)nn1-c1ccc(Cl)c(Cl)c1.Cl` [Example 31, 4-{2-[1-(3,4-dichlorophenyl)-5-isopropyl-1H-pyrazol-3-yloxy]ethyl}morpholine hydrochloride] showed a melting point of 195 to 197 °C. The inhibition at 0.1 µM at σ1-receptor was 68.6%.

As to `CC(C)c1cc(OCCN2CCCC2)nn1-c1ccc(Cl)c(Cl)c1.Cl` [Example 33, 1-(3,4-Dichlorophenyl)-5-isopropyl-3-[2-(pyrrolidin-1-yl)ethoxy]-1H-pyrazole hydrochloride], the melting point was in the range of 138 to 142 °C. The inhibition at 0.1 µM on σ1-receptor came out at 87.1%.

Molecule `CC(C)c1cc(OCCCN2CCCC2)nn1-c1ccc(Cl)c(Cl)c1.Cl` [Example 34, 1-(3,4-Dichlorophenyl)-5-isopropyl-3-[3-(pyrrolidin-1-yl)propoxy]-1H-pyrazole hydrochloride] registered a melting point of 152 to 156 °C. In addition, at σ1-receptor, the affinity, expressed as Ki, was 12.4 nM and the inhibition at 0.1 µM amounted to 104%.

`CC(C)c1cc(OCCN2CCc3ccccc3C2)nn1-c1ccc(Cl)c(Cl)c1.Cl` [Example 36, 2-{2-[1-(3,4-dichlorophenyl)-5-isopropyl-1H-pyrazol-3-yloxy]ethyl}-1,2,3,4-tetrahydroisoquinoline hydrochloride] showed a melting point of 186 to 191 °C. Besides, the inhibition at 0.1 µM on σ1-receptor was found to be 52.7%.

Regarding `Cc1cc(OCCN2CCCCC2)nn1-c1ccc2ccccc2c1.Cl` [Example 63, 1-{2-[5-Methyl-1-(naphthalen-2-yl)-1H-pyrazol-3-yloxy]ethyl}piperidine hydrochloride], the melting point was in the range of 198 to 202 °C. The inhibition at 0.1 µM at σ1-receptor was determined as 105%.

Molecule `Cc1cc(OCCN2CCCC2)nn1-c1ccc2ccccc2c1.Cl` [Example 64, 5-Methyl-1-(naphthalen-2-yl)-3-[2-(pyrrolidin-1-yl)ethoxy]-1H-pyrazole hydrochloride] returned a melting point of 170 to 171 °C. At σ1-receptor, the inhibition at 0.1 µM turned out to be 105%.

Regarding `C[C@@H]1CN(CCCn2c3ccccc3c3ccccc32)C[C@H](C)N1` [rimcazole], the “clinical effects in the treatment of psychosis” value with psychosis is on record as “clinically shows effects in the treatment of psychosis”.

In the case of SKF 10047, the “affinity for the sigma 1 (σ-1) site” value on sigma 1 (σ-1) site is given as “nanomolar affinity”. Moreover, the “affinity for the sigma (σ-2) site” value at sigma (σ-2) site is “micromolar affinity”.
